Target: T1, human TRPV1 (Homo sapiens, UniProt Q8NER1)
T1 construct: expressed in transfected cells; host or cells: CHO-K1
Assay: Measurement of capsaicin-induced Ca influx in human TRPV1 transformed CHO cell line using FDSS-6000
Format: cell-based
Conditions: concentration at which the capsaicin concentration-reaction curve is shifted two times to the right, human TRPV1 transformed CHO cells

T1 sequence (Q8NER1 whole entry): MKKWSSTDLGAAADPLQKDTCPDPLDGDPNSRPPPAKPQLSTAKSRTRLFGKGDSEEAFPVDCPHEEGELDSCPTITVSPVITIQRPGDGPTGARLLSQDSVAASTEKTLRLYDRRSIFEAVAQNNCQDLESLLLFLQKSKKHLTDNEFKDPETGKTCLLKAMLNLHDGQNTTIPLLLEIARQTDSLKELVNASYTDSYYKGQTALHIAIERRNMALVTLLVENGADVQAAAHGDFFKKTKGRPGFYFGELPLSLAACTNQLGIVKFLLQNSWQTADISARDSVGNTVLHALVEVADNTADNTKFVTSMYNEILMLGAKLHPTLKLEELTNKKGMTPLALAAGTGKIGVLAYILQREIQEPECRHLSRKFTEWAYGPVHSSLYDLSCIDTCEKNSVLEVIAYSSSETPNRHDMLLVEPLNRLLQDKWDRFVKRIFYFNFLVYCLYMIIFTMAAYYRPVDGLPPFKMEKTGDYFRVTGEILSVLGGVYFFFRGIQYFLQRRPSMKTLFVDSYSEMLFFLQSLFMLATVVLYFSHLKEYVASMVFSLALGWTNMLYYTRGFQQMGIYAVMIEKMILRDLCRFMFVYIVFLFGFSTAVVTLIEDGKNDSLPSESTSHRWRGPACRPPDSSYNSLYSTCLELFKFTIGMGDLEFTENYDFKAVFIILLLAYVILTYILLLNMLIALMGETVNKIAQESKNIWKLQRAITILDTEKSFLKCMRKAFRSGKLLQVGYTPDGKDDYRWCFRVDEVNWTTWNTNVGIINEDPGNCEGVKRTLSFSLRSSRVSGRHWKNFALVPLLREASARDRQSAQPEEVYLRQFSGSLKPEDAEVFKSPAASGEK

SMILES | A2 VALUE
O=C(/C=C1\CCN(c2ncc(CO)cc2Cl)c2cc(C(F)(F)F)ccc21)Nc1cccc2c1CC(O)CC2 (centres unmarked) [Example 200, (E)-2-(1-(3-chloro-5-hydroxymethyl-pyridin-2-yl)-7-trifluoromethyl-2,3-dihydroquinolin-4(1H)-ylidene)-N-(7-hydroxy-5,6,7,8-tetrahydronaphthalen-1-yl)acetamide] | A (compounds of the present invention having an A2 value of less than 100 nM are represented by A)
CCC(F)(F)C(=O)N1CC/C(=C\C(=O)Nc2cccc3c2CC(O)CC3)c2ccc(C(F)(F)F)cc21 (centres unmarked) [Example 95, (E)-2-(1-(2,2-difluorobutanoyl)-7-trifluoromethyl-2,3-dihydroquinolin-4(1H)-ylidene)-N-(7-hydroxy-5,6,7,8-tetrahydronaphthalen-1-yl)acetamide] | A (compounds of the present invention having an A2 value of less than 100 nM are represented by A)
O=C(/C=C1\CCCOc2cc(C(F)(F)F)ccc21)Nc1ccc(C(=O)N2CCOCC2)cc1 [Example 25, (E)-2-(8-trifluoromethyl-3,4-dihydrobenzo[b]oxepin-5(2H)-ylidene)-N-(4-(4-morpholinylcarbonyl)phenyl)acetamide] | B (compounds having an A2 value of 100 nM or more are represented by B)
O=C(/C=C1\CCCOc2cc(C(F)(F)F)ccc21)Nc1ccc2ccc(O)cc2c1 [Example 128, (E)-2-(8-trifluoromethyl-3,4-dihydrobenzo[b]oxepin-5(2H)-ylidene)-N-(7-hydroxynaphthalen-2-yl)acetamide] | A (compounds of the present invention having an A2 value of less than 100 nM are represented by A)
O=C(/C=C1\CCN(C(=O)CC2CCCC2)c2cc(C(F)(F)F)ccc21)Nc1ccc2cccnc2c1 [Example 102, (E)-2-(7-trifluoromethyl-2,3-dihydro-1-(cyclopentylacetyl)quinolin-4(1H)-ylidene)-N-(quinolin-7-yl)acetamide] | A (compounds of the present invention having an A2 value of less than 100 nM are represented by A)
O=C(/C=C1\CCCOc2cc(C(F)(F)F)c(F)cc21)Nc1cccc2c1CC(O)CC2 (centres unmarked) [Example 248, (E)-2-(7-fluoro-8-trifluoromethyl-3,4-dihydrobenzo[b]oxepin-5-(2H)-ylidene)-N-(7-hydroxy-5,6,7,8-tetrahydronaphthalen-1-yl)acetamide] | A (compounds of the present invention having an A2 value of less than 100 nM are represented by A)
O=C(/C=C1\CCCOc2cc(C(F)(F)F)ccc21)Nc1cccc2c1CC(O)CC2 (centres unmarked) [Example 63, (E)-2-(8-trifluoromethyl-3,4-dihydrobenzo[b]oxepin-5-(2H)-ylidene)-N-(7-hydroxy-5,6,7,8-tetrahydronaphthalen-1-yl)acetamide] | A (compounds of the present invention having an A2 value of less than 100 nM are represented by A)
CCC(C)CC(=O)N1CC/C(=C\C(=O)Nc2ccc3cccnc3c2)c2ccc(C(F)(F)F)cc21 (centres unmarked) [Example 79, (E)-2-(1-(3-methylpentanoyl)-7-trifluoromethyl-2,3-dihydroquinolin-4(1H)-ylidene)-N-(quinolin-7-yl)acetamide] | A (compounds of the present invention having an A2 value of less than 100 nM are represented by A)
O=C(/C=C1\CCN(C(=O)C2CCCC2)c2cc(C(F)(F)F)ccc21)Nc1cccc2c1CC(O)CC2 (centres unmarked) [Example 82, (E)-2-(1-cyclopentanecarbonyl-7-trifluoromethyl-2,3-dihydroquinolin-4(1H)-ylidene)-N-(7-hydroxy-5,6,7,8-tetrahydronaphthalen-1-yl)acetamide] | A (compounds of the present invention having an A2 value of less than 100 nM are represented by A)
O=C(/C=C1\CCN(C(=O)C2(O)CC2)c2cc(C(F)(F)F)ccc21)Nc1cccc2c1CC(O)CC2 (centres unmarked) [Example 112, (E)-2-(1-(1-hydroxycyclopropanecarbonyl)-7-trifluoromethyl-2,3-dihydroquinolin-4(1H)-ylidene)-N-(7-hydroxy-5,6,7,8-tetrahydronaphthalen-1-yl)acetamide] | B (compounds having an A2 value of 100 nM or more are represented by B)
O=C(/C=C1\CCN(C(=O)C2CC2)c2cc(C(F)(F)F)ccc21)Nc1cccc2c1CC(O)CC2 (centres unmarked) [Example 105, (E)-2-(7-trifluoromethyl-2,3-dihydro-1-cyclopropanecarbonylquinolin-4(1H)-ylidene)-N-(7-hydroxy-5,6,7,8-tetrahydronaphthalen-1-yl)acetamide] | A (compounds of the present invention having an A2 value of less than 100 nM are represented by A)
O=C(/C=C1\CCN(c2cccnc2)c2cc(C(F)(F)F)ccc21)Nc1ccc2cccnc2c1 [Example 58, (E)-2-(7-trifluoromethyl-2,3-dihydro-1-(pyridin-3-yl)quinolin-4(1H)-ylidene)-N-(quinolin-7-yl)acetamide] | A (compounds of the present invention having an A2 value of less than 100 nM are represented by A)
O=C(/C=C1\CCCOc2nc(C(F)(F)F)ccc21)Nc1cccc2c1CC(O)CC2 (centres unmarked) [Example 239, (E)-2-(8-trifluoromethyl-2,3,4,5-tetrahydrooxepino[2,3-b]pyridin-5-ylidene)-N-(7-hydroxy-5,6,7,8-tetrahydronaphthalen-1-yl)acetamide] | A (compounds of the present invention having an A2 value of less than 100 nM are represented by A)
O=C(/C=C1\CCOc2cc(C(F)(F)F)ccc21)Nc1ccc2sc(CO)nc2c1 [Example 216, (E)-2-(7-trifluoromethyl-chroman-4-ylidene)-N-(2-hydroxymethyl-1,3-benzothiazolo-5-yl)acetamide] | A (compounds of the present invention having an A2 value of less than 100 nM are represented by A)
O=C1CCc2cccc(NC(=O)/C=C3\CCOc4cc(C(F)(F)F)ccc43)c2C1 [Example 119, (E)-N-(7-oxo-5,6,7,8-tetrahydronaphthalen-1-yl)-2-(7-trifluoromethyl-chroman-4-ylidene)acetamide] | A (compounds of the present invention having an A2 value of less than 100 nM are represented by A)
O=C(/C=C1\CCOc2cc(Cl)ccc21)Nc1cccc2c1CC(O)CN2 (centres unmarked) [Example 209, (E)-2-(7-chloro-chroman-4-ylidene)-N-(3-hydroxy-1,2,3,4-tetrahydroquinolin-5-yl)acetamide] | A (compounds of the present invention having an A2 value of less than 100 nM are represented by A)
O=C(/C=C1\CCCOc2cc(C(F)(F)F)ccc21)NCC1COc2ccccc2O1 (centres unmarked) [Example 34, (E)-2-(8-trifluoromethyl-3,4-dihydrobenzo[b]oxepin-5(2H)-ylidene)-N-((2,3-dihydrobenzo[b][1,4]dioxin-2-yl)methyl)acetamide] | B (compounds having an A2 value of 100 nM or more are represented by B)
O=C(/C=C1\CC2(CCC2)Oc2cc(C(F)(F)F)ccc21)Nc1cccc2c1CC(O)CC2 (centres unmarked) [Example 251, (E)-2-(7-trifluoromethyl-2,2-cyclobutylchroman-4-ylidene)-N-(7-hydroxy-5,6,7,8-tetrahydronaphthalen-1-yl)acetamide] | A (compounds of the present invention having an A2 value of less than 100 nM are represented by A)
CC1(C)C/C(=C\C(=O)Nc2cccc3c2CC(O)CC3)c2ccc(C(F)(F)F)cc2O1 (centres unmarked) [Example 243, (E)-2-(7-trifluoromethyl-2,2-dimethylchroman-4-ylidene)-N-(7-hydroxy-5,6,7,8-tetrahydronaphthalen-1-yl)acetamide] | A (compounds of the present invention having an A2 value of less than 100 nM are represented by A)
O=C(/C=C1\CCCOc2cc(C(F)(F)F)ccc21)Nc1cccc2cc(O)ccc12 [Example 126, (E)-N-(6-hydroxynaphthalen-1-yl)-2-(8-trifluoromethyl-3,4-dihydrobenzo[b]oxepin-5(2H)-ylidene)acetamide] | A (compounds of the present invention having an A2 value of less than 100 nM are represented by A)
O=C(/C=C1\CCOc2cc(C(F)(F)F)ccc21)Nc1cccc2c1CC(O)CC2 (centres unmarked) [Example 71, (E)-2-(7-trifluoromethyl-chroman-4-ylidene)-N-(7-hydroxy-5,6,7,8-tetrahydronaphthalen-1-yl)acetamide] | A (compounds of the present invention having an A2 value of less than 100 nM are represented by A)
O=C(/C=C1\CCCOc2cc(C(F)(F)F)ccc21)Nc1ccc2c(c1)OCCO2 [Example 9, (E)-2-(8-trifluoromethyl-3,4-dihydrobenzo[b]oxepin-5(2H)-ylidene)-N-(2,3-dihydrobenzo[b][1,4]dioxin-6-yl)acetamide] | A (compounds of the present invention having an A2 value of less than 100 nM are represented by A)
CCn1c(NC(=O)/C=C2\CCCOc3cc(C(F)(F)F)ccc32)nc2ccccc21 [Example 43, (E)-N-(1-ethyl-1H-benzo[d]imidazolo-2-yl)-2-(8-trifluoromethyl-3,4-dihydrobenzo[b]oxepin-5(2H)-ylidene)acetamide] | B (compounds having an A2 value of 100 nM or more are represented by B)
O=C(/C=C1\CCCOc2cc(C(F)(F)F)ccc21)Nc1cccnc1N1CCOCC1 [Example 20, (E)-2-(8-trifluoromethyl-3,4-dihydrobenzo[b]oxepin-5(2H)-ylidene)-N-(2-morpholinopyridin-3-yl)acetamide] | B (compounds having an A2 value of 100 nM or more are represented by B)
CCCCC(=O)N1CC/C(=C\C(=O)Nc2cccc3c2CC(O)C(=O)N3)c2ccc(C(F)(F)F)cc21 (centres unmarked) [Example 107, (E)-2-(7-trifluoromethyl-2,3-dihydro-1-pentanoylquinolin-4(1H)-ylidene)-N-(3,4-dihydro-3-hydroxy(1H)quinolin-2-on-5-yl)acetamide] | A (compounds of the present invention having an A2 value of less than 100 nM are represented by A)
O=C(/C=C1\CCCOc2cc(C(F)(F)F)ccc21)Nc1ccc(C(F)(F)F)cc1 [Example 15, (E)-2-(8-trifluoromethyl-3,4-dihydrobenzo[b]oxepin-5(2H)-ylidene)-N-(4-trifluoromethylphenyl)acetamide] | B (compounds having an A2 value of 100 nM or more are represented by B)
